Laboratory results taken from article PMC8688955 (Frontiers in Pharmacology, 2021).

Experiments:
[1] = test system: CP-AMPARs; assay: Whole-cell patch-clamp of kainate-induced currents in isolated striatal giant interneurons; type: cell-based, Wistar rat; conditions: 100 µM compound, currents induced by 100 µM kainate, −80 mV, mean ± SD, N = 5
Method: All experimental procedures were approved by the Animal Care and Use Committee of the I.M. Sechenov Institute of Evolutionary Physiology and Biochemistry of the Russian Academy of Sciences. Wistar rats (13–19 days old) were anesthetized with sevoflurane and then decapitated. Maximum effort was made to minimize the number of animals used. Brains were removed quickly and cooled to 2–4°C in an ice bath. […] Single neurons were freed from slices by vibrodissociation ([Vorobjev, 1991]). The antagonism of CP-AMPARs was studied on striatal giant interneurons ([Bernard et al., 1997]; [Gotz et al., 1997]), which were identified by their shape and size. […] The antagonism of CI-AMPARs was studied on pyramidal neurons from the CA1 area of the hippocampus.
(§1) Series resistance of about 20 MΩ was compensated by 70–80% and monitored during experiments. Currents were recorded using an EPC-8 amplifier (HEKA Electronics, Lambrecht, Germany), filtered at 5 kHz, sampled, and stored on a personal computer. Drugs were applied using the RSC-200 perfusion system (BioLogic Science Instruments, Claix, France) under computer control. The solution exchange time in the whole-cell mode was 50–60 ms. The extracellular solution contained (in mM) NaCl 143, KCl 5, MgCl2 2.0, CaCl2 2.5, D-glucose 18, and HEPES 10 (pH was adjusted to 7.3 with HCl). The pipette solution contained (in mM) CsF 100, CsCl 40, NaCl 5, CaCl2 0.5, EGTA 5, and HEPES 10 (pH was adjusted to 7.2 with CsOH). Experiments were performed at room temperature (22–24°C). […] Lamotrigine, topiramate, levetiracetam, felbamate, carbamazepine, tiagabin, vigabatrin, zonisamide, and gabapentin were purchased from Tocris Bioscience (Bristol, United Kingdom). Perampanel was from MedChemExpress (Stockholm, Sweden). Kinetics of transient processes of more than 20-ms duration was approximated by exponential functions. Experiments were performed at −80 mV holding voltage. All experimental data are presented as mean ± SD estimated from at least four experiments. Significance of the effects was tested with paired t test. Differences were considered significant at p < 0.05. 3D structures of compounds were calculated by the ZMM software (zmmsoft.ca).

[2] = molecular target: T1, CI-AMPARs (Rattus norvegicus, UniProt P19491, Q607R); assay: Whole-cell patch-clamp of kainate-induced currents in isolated hippocampal CA1 pyramidal neurons; type: cell-based, Wistar rat; conditions: for CI-AMPARs % inhibition at 100 µM: 100 µM compound; for CI-AMPARs % inhibition at 100 µM / inhibition at 100 µM: currents induced by 100 µM kainate, −80 mV, mean ± SD, N = 5; for inhibition at 100 µM: read-out: CI-AMPARs % inhibition at 100 µM, 100 µM compound; for inhibition at 300 µM: 300 µM compound, read-out: percentage of inhibition at 300-µM concentration
T1 construct: activity against native calcium-permeable AMPA receptors (CP-AMPARs) and calcium-impermeable AMPA receptors (CI-AMPARs); endogenous in cells; host or cells: acutely isolated pyramidal neurons from the CA1 area of Wistar rat hippocampal slices
Method: All experimental procedures were approved by the Animal Care and Use Committee of the I.M. Sechenov Institute of Evolutionary Physiology and Biochemistry of the Russian Academy of Sciences. Wistar rats (13–19 days old) were anesthetized with sevoflurane and then decapitated. Maximum effort was made to minimize the number of animals used. Brains were removed quickly and cooled to 2–4°C in an ice bath. […] The antagonism of CI-AMPARs was studied on pyramidal neurons from the CA1 area of the hippocampus.
as §1, with “The extracellular solution contained (in mM) NaCl 143, KCl 5, MgCl2 2.0, CaCl2 2.5, D-glucose 18, and HEPES 10 (pH was adjusted to 7.3 with HCl).” left out

[3] = test system: hGluA1-4 receptors; set-up: method as in Fukushima et al. (2020); conditions: ref Fukushima et al. (2020); cited from earlier work

T1 sequence (P19491 22-883 Q607R): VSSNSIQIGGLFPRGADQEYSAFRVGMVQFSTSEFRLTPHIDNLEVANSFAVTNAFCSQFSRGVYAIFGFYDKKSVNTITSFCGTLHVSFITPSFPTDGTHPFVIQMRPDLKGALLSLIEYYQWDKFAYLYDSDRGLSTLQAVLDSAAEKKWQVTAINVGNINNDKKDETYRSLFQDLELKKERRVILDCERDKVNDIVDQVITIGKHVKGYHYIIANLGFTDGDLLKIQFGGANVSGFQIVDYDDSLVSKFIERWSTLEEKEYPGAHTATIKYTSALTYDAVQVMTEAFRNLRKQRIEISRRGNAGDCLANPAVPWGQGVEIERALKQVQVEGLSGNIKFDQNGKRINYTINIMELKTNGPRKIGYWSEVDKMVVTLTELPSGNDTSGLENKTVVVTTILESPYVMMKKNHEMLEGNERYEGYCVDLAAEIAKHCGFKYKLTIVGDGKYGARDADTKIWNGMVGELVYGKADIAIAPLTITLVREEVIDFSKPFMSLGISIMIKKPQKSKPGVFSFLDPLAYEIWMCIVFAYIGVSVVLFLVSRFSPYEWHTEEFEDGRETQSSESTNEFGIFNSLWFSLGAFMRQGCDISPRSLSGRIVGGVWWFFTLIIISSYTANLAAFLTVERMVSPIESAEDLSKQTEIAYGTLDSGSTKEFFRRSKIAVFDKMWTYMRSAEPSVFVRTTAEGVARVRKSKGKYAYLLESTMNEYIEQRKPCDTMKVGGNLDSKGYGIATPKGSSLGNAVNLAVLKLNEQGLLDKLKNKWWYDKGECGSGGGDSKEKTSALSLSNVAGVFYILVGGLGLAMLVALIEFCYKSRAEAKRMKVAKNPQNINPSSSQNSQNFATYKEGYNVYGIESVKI

SMILES | CP-AMPARs % inhibition at 100 µM [1] | CI-AMPARs % inhibition at 100 µM [2] | inhibition at 300 µM [2] | activity against hGluA1-4 receptors [3] | other results
Cc1ccsc1C(=CCCN1CCCC(C(=O)O)C1)c1sccc1C (stereo not drawn) [Tiagabin] | 10 ± 2% | 14 ± 2% |  |  | CP-AMPARs % inhibition at 100 µM ([1]; listed as tiagabin): ≤ 20%; inhibition at 100 µM [2]: ≤ 20%
C=CC(N)CCC(=O)O (stereo not drawn) [Vigabatrin] | 10 ± 3% | 8 ± 1% |  |  | CP-AMPARs % inhibition at 100 µM ([1]; listed as vigabatrin): ≤ 20%; CI-AMPARs % inhibition at 100 µM ([2]; listed as vigabatrin): ≤ 20%
NS(=O)(=O)Cc1noc2ccccc12 [Zonisamide] | 11 ± 3% | 11 ± 2% |  |  | CP-AMPARs % inhibition at 100 µM ([1]; listed as zonisamide): ≤ 20%; inhibition at 100 µM [2]: ≤ 20%
CCC1(C)CC(=O)NC1=O (stereo not drawn) [ethosuximide] |  |  | ≤ 20% |  | 
O=C1CNC(=O)N1 [hydantoin] |  |  | ≤ 20% |  | 
COC[C@@H](NC(C)=O)C(=O)NCc1ccccc1 [lacosamide] |  |  |  | did not find significant activity | 
CCC1(c2ccccc2)C(=O)NC(=O)NC1=O [phenobarbital] |  |  |  | did not find significant activity | 
CCC1(c2ccccc2)C(=O)NCNC1=O [primidone] |  |  | ≤ 20% |  | 
CCCC(CCC)C(=O)O [valproate] |  |  |  | did not find significant activity | 
